Results as given in patent EP4667467A1, “PROTAC DEGRADERS OF MLLT1 AND/OR MLLT3” (Dark Blue Therapeutics Ltd, priority 2024, dated 2025).

Target: T1, MLLT1 (Homo sapiens, UniProt Q03111)
T1 construct: endogenous in cells; host or cells: MV4-11 (ATCC CRL-9591)
T1 sequence (Q03111 1-559): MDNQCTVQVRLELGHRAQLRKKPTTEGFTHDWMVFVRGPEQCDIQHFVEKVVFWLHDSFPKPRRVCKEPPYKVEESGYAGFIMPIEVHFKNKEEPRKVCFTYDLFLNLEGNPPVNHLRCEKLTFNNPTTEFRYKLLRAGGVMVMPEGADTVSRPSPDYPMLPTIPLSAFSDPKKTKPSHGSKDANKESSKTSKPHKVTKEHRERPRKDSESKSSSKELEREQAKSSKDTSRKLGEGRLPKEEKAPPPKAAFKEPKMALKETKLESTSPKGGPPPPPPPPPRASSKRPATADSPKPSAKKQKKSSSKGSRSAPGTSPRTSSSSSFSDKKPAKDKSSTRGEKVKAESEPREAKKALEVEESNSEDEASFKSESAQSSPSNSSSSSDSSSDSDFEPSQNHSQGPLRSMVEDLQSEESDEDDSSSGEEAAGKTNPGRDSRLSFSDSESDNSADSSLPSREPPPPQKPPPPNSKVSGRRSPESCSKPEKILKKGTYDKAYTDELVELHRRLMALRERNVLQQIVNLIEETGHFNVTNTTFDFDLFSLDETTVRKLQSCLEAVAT
Assay: MLLT1 Degradation Assay (JESS automated chemiluminescent detection, MV4-11 cells)
Type: cell-based
Conditions: 24h, with respect to DMSO control; for MLLT1 % Degradation @ 0.01 µM: 0.01 µM (10 nM) test compound; for MLLT1 % Degradation @ 0.1 µM: 0.1 µM (100 nM) test compound; for MLLT 1 % Degradation @ 1 µM: 1 µM (1000 nM) test compound
Method: MLLT1 degradation efficacy of compounds were tested in an automated chemiluminescent detection system (JESS, Cat# 004-650). […] 10 mM DMSO stocks were prepared, and cells were treated with three concentrations of test compounds viz. 1000, 100 and 10 nM at a final DMSO concentration of 0.1% and incubated for 24h at 37°C, 5% CO2. […] Post run, data were analysed using "Compass for SW" software for chemiluminescent detection. The peak area for each band was used for the calculation of MLLT1 degradation with respect to DMSO control. Data is shown as "MLLT1 % degradation".

SMILES: CN1CCC[C@@H]1c1[nH]c2cc(NC(=O)CCCCCCNc3cccc4c3C(=O)N(C3CCC(=O)NC3=O)C4=O)ncc2c1Cl (stereo partly drawn) [Example 33, N-{3-chloro-2-[(2R)-1-methylpyrrolidin-2-yl]-1H-pyrrolo[3,2-c]pyridin-6-yl}-7-{[2-(2,6-dioxopiperidin-3-yl)-1,3-dioxoisoindol-4-yl]amino}heptanamide]
- MLLT1 % Degradation @ 0.01 µM: B (Category B: 50% ≤ B < 75% degradation)
- MLLT1 % Degradation @ 0.1 µM: A (Category A: A ≥ 75% degradation)
- MLLT 1 % Degradation @ 1 µM: A (Category A: A ≥ 75% degradation)

SMILES: CN1CCC[C@@H]1c1cc2cnc(NC(=O)c3ccc(-c4cnn(CCCC5CCN(c6cccc7c6C(=O)N(C6CCC(=O)NC6=O)C7=O)CC5)c4)cc3)cc2[nH]1 (stereo partly drawn) [Example 34, 4-[1-(3-{1-[2-(2,6-dioxopiperidin-3-yl)-1,3-dioxoisoindol-4-yl]piperidin-4-yl}propyl)pyrazol-4-yl]-N-{2-[(2R)-1-methylpyrrolidin-2-yl]-1H-pyrrolo[3,2-c]pyridin-6-yl}benzamide]
- MLLT1 % Degradation @ 0.1 µM: A (Category A: A ≥ 75% degradation)
- MLLT 1 % Degradation @ 1 µM: A (Category A: A ≥ 75% degradation)

SMILES: CN1CCC[C@@H]1c1cc2cnc(NC(=O)c3ccc(-c4cnn(CCCC5CCN(c6cccc7c6CN(C6CCC(=O)NC6=O)C7=O)CC5)c4)cc3)cc2[nH]1 (stereo partly drawn) [Example 35, 4-[1-(3-{1-[2-(2,6-dioxopiperidin-3-yl)-1-oxo-3H-isoindol-4-yl]piperidin-4-yl}propyl)pyrazol-4-yl]-N-{2-[(2R)-1-methylpyrrolidin-2-yl]-1H-pyrrolo[3,2-c]pyridin-6-yl}benzamide]
- MLLT1 % Degradation @ 0.01 µM: A (Category A: A ≥ 75% degradation)
- MLLT1 % Degradation @ 0.1 µM: A (Category A: A ≥ 75% degradation)
- MLLT 1 % Degradation @ 1 µM: A (Category A: A ≥ 75% degradation)

SMILES: CN1CCC[C@@H]1c1cc2cnc(NC(=O)c3ccc(CCCNc4cccc5c4C(=O)N(C4CCC(=O)NC4=O)C5=O)cc3)cc2[nH]1 (stereo partly drawn) [Example 36, 4-(3-{[2-(2,6-dioxopiperidin-3-yl)-1,3-dioxoisoindol-4-yl]amino}propyl)-N-{2-[(2R)-1-methylpyrrolidin-2-yl]-1H-pyrrolo[3,2-c]pyridin-6-yl}benzamide]
- MLLT1 % Degradation @ 0.01 µM: A (Category A: A ≥ 75% degradation)
- MLLT1 % Degradation @ 0.1 µM: A (Category A: A ≥ 75% degradation)
- MLLT 1 % Degradation @ 1 µM: A (Category A: A ≥ 75% degradation)

SMILES: CN1CCC[C@H]1c1cc2cnc(NC(=O)c3ccc(CCCNc4cccc5c4C(=O)N(C4CCC(=O)NC4=O)C5=O)cc3)cc2[nH]1 (stereo partly drawn) [Example 37, 4-(3-{[2-(2,6-dioxopiperidin-3-yl)-1,3-dioxoisoindol-4-yl]amino}propyl)-N-{2-[(2S)-1-methylpyrrolidin-2-yl]-1H-pyrrolo[3,2-c]pyridin-6-yl}benzamide]
- MLLT1 % Degradation @ 0.01 µM: B (Category B: 50% ≤ B < 75% degradation)
- MLLT1 % Degradation @ 0.1 µM: A (Category A: A ≥ 75% degradation)
- MLLT 1 % Degradation @ 1 µM: A (Category A: A ≥ 75% degradation)

SMILES: CN1CCC[C@@H]1c1cc2cnc(NC(=O)c3cnn(CCCC4CCN(c5cccc6c5C(=O)N(C5CCC(=O)NC5=O)C6=O)CC4)c3)cc2[nH]1 (stereo partly drawn) [Example 38, 1-(3-{1-[2-(2,6-dioxopiperidin-3-yl)-1,3-dioxoisoindol-4-yl]piperidin-4-yl}propyl)-N-{2-[(2R)-1-methylpyrrolidin-2-yl]-1H-pyrrolo[3,2-c]pyridin-6-yl}pyrazole-4-carboxamide]
- MLLT1 % Degradation @ 0.01 µM: D (Category D: D < 25% degradation)
- MLLT1 % Degradation @ 0.1 µM: D (Category D: D < 25% degradation)
- MLLT 1 % Degradation @ 1 µM: C (Category C: 25% ≤ C < 50% degradation)

SMILES: CN1CCC[C@@H]1c1cc2cnc(NC(=O)COCCCCNc3cccc4c3C(=O)N(C3CCC(=O)NC3=O)C4=O)cc2[nH]1 (stereo partly drawn) [Example 40, 2-(4-((2-(2,6-dioxopiperidin-3-yl)-1,3-dioxoisoindolin-4-yl)amino)butoxy)-N-(2-((R)-1-methylpyrrolidin-2-yl)-1H-pyrrolo[3,2-c]pyridin-6-yl)acetamide]
- MLLT1 % Degradation @ 0.1 µM: C (Category C: 25% ≤ C < 50% degradation)
- MLLT 1 % Degradation @ 1 µM: B (Category B: 50% ≤ B < 75% degradation)

SMILES: CN1CCC[C@@H]1c1cc2cnc(NC(=O)CCCC3CCN(c4cccc5c4C(=O)N(C4CCC(=O)NC4=O)C5=O)CC3)cc2[nH]1 (stereo partly drawn) [Example 41, 4-(1-(2-(2,6-dioxopiperidin-3-yl)-1,3-dioxoisoindolin-4-yl)piperidin-4-yl)-N-(2-((R)-1-methylpyrrolidin-2-yl)-1H-pyrrolo[3,2-c]pyridin-6-yl)butanamide]
- MLLT1 % Degradation @ 0.01 µM: B (Category B: 50% ≤ B < 75% degradation)
- MLLT1 % Degradation @ 0.1 µM: B (Category B: 50% ≤ B < 75% degradation)
- MLLT 1 % Degradation @ 1 µM: A (Category A: A ≥ 75% degradation)

SMILES: CN1CCC[C@@H]1c1cc2cnc(NC(=O)CCCCC3CCN(c4cccc5c4C(=O)N(C4CCC(=O)NC4=O)C5=O)CC3)cc2[nH]1 (stereo partly drawn) [Example 42, 5-(1-(2-(2,6-Dioxopiperidin-3-yl)-1,3-dioxoisoindolin-4-yl)piperidin-4-yl)-N-(2-((R)-1-methylpyrrolidin-2-yl)-1H-pyrrolo[3,2-c]pyridin-6-yl)pentanamide]
- MLLT1 % Degradation @ 0.1 µM: B (Category B: 50% ≤ B < 75% degradation)
- MLLT 1 % Degradation @ 1 µM: B (Category B: 50% ≤ B < 75% degradation)

SMILES: CN1CCC[C@@H]1c1cc2cnc(NC(=O)CCCCCC3CCN(c4cccc5c4C(=O)N(C4CCC(=O)NC4=O)C5=O)CC3)cc2[nH]1 (stereo partly drawn) [Example 43, 6-(1-(2-(2,6-dioxopiperidin-3-yl)-1,3-dioxoisoindolin-4-yl)piperidin-4-yl)-N-(2-((R)-1-methylpyrrolidin-2-yl)-1H-pyrrolo[3,2-c]pyridin-6-yl)hexanamide]
- MLLT1 % Degradation @ 0.1 µM: A (Category A: A ≥ 75% degradation)
- MLLT 1 % Degradation @ 1 µM: B (Category B: 50% ≤ B < 75% degradation)

SMILES: CN1CCC[C@@H]1c1cc2cnc(NC(=O)CCCC3CCCN(c4cccc5c4C(=O)N(C4CCC(=O)NC4=O)C5=O)C3)cc2[nH]1 (stereo partly drawn) [Example 44, 4-(1-(2-(2,6-dioxopiperidin-3-yl)-1,3-dioxoisoindolin-4-yl)piperidin-3-yl)-N-(2-((R)-1-methylpyrrolidin-2-yl)-1H-pyrrolo[3,2-c]pyridin-6-yl)butanamide]
- MLLT1 % Degradation @ 0.1 µM: C (Category C: 25% ≤ C < 50% degradation)
- MLLT 1 % Degradation @ 1 µM: C (Category C: 25% ≤ C < 50% degradation)

SMILES: CN1CCC[C@@H]1c1cc2cnc(NC(=O)c3cccc(CCCNc4cccc5c4C(=O)N(C4CCC(=O)NC4=O)C5=O)c3)cc2[nH]1 (stereo partly drawn) [Example 45, 3-(3-((2-(2,6-dioxopiperidin-3-yl)-1,3-dioxoisoindolin-4-yl)amino)propyl)-N-(2-((R)-1-methylpyrrolidin-2-yl)-1H-pyrrolo[3,2-c]pyridin-6-yl)benzamide]
- MLLT1 % Degradation @ 0.01 µM: A (Category A: A ≥ 75% degradation)
- MLLT1 % Degradation @ 0.1 µM: A (Category A: A ≥ 75% degradation)
- MLLT 1 % Degradation @ 1 µM: A (Category A: A ≥ 75% degradation)

SMILES: CN1CCC[C@@H]1c1cc2cnc(NC(=O)c3ccc(CCC#Cc4cccc5c4CN(C4CCC(=O)NC4=O)C5=O)cn3)cc2[nH]1 (stereo partly drawn) [Example 49, 5-(4-(2-(2,6-dioxopiperidin-3-yl)-1-oxoisoindolin-4-yl)but-3-yn-1-yl)-N-(2-((R)-1-methylpyrrolidin-2-yl)-1H-pyrrolo[3,2-c]pyridin-6-yl)picolinamide]
- MLLT1 % Degradation @ 0.01 µM: D (Category D: D < 25% degradation)
- MLLT1 % Degradation @ 0.1 µM: D (Category D: D < 25% degradation)
- MLLT 1 % Degradation @ 1 µM: C (Category C: 25% ≤ C < 50% degradation)

SMILES: CN1CCCC1c1cc2cnc(NC(=O)c3ccc(OCC#Cc4cccc5c4CN(C4CCC(=O)NC4=O)C5=O)cn3)cc2[nH]1 (stereo not shown) [Example 50, 5-[3-[2-(2,6-dioxo-3-piperidyl)-1-oxo-isoindolin-4-yl]prop-2-ynoxy]-N-[2-(1-methylpyrrolidin-2-yl)-1H-pyrrolo[3,2-c]pyridin-6-yl]pyridine-2-carboxamide]
- MLLT1 % Degradation @ 0.01 µM: B (Category B: 50% ≤ B < 75% degradation)
- MLLT1 % Degradation @ 0.1 µM: B (Category B: 50% ≤ B < 75% degradation)
- MLLT 1 % Degradation @ 1 µM: B (Category B: 50% ≤ B < 75% degradation)

SMILES: CN1CCC[C@@H]1c1cc2cnc(NC(=O)c3ccc(OCC#Cc4cccc5c4CN(C4CCC(=O)NC4=O)C5=O)cc3)cc2[nH]1 (stereo partly drawn) [Example 51, 4-((3-(2-(2,6-dioxopiperidin-3-yl)-1-oxoisoindolin-4-yl)prop-2-yn-1-yl)oxy)-N-(2-((R)-1-methylpyrrolidin-2-yl)-1H-pyrrolo[3,2-c]pyridin-6-yl)benzamide]
- MLLT1 % Degradation @ 0.01 µM: A (Category A: A ≥ 75% degradation)
- MLLT1 % Degradation @ 0.1 µM: A (Category A: A ≥ 75% degradation)
- MLLT 1 % Degradation @ 1 µM: A (Category A: A ≥ 75% degradation)
